{"source": "patent US20150111896A1", "about": "“HEMATOPOIETIC PROTECTION AGAINST CHEMOTHERAPEUTIC COMPOUNDS USING SELECTIVE CYCLIN-DEPENDENT KINASE 4/6 INHIBITORS” (The University of North Carolina at Chapel Hill, priority 2008, published 2015)", "key": {"[1]": {"system": "hematopoietic stem and progenitor cells (HSPC)", "assay": "In vivo pharmacodynamic assay (BrdU incorporation, Ki67) in bone marrow", "design": "species or system mice", "description": "PD0332991: For HSPC proliferation experiments, mice received daily oral gavage with PD0332991 150 mg/kg for 2 days with 1 mg BrdU intraperitoneal injection (i.p.) every 6 hours for 24 hours prior to sacrifice.\n2BrIC: For HSPC proliferation experiments, mice were treated with two doses of 2-bromo-12,13-dihydro-5H-indolo[2,3-a]pyrrolo[3,4-c]carbazole-5,7(6H)-dione (2BrIC) 300 mg/kg oral gavage or vehicle control. 2BrIC was solubilized for oral gavage using formulation #6 from the Hot Rod formulation kit (Pharmatek, Inc., San Diego, Calif., United States of America). 2BrIC was administered 2 hours prior to BrdU administration and readministered at the time of the BrdU 1 mg i.p. injection. After BrdU+/−2BrIC treatment for the indicated times, the mice were sacrificed and bone marrow harvested for immunophenotyping, and BrdU analysis.\nBone marrow (BM) was harvested from femurs of mice, pooled, and centrifuged to purify bone marrow mononuclear cells (BM-MNCs). Cells were then incubated for 5 minutes in ACK buffer to lyse red blood cells. All antibodies were from BD Pharmingen (San Jose, Calif., United States of America) unless otherwise indicated. Purified BM-MNCs were incubated with mouse lineage mixture biotin conjugated antibody, followed by streptavidin-FITC. Cells were then stained with Sca-1-PE-Cy7 and c-kit-APC-alexa750 antibodies. Cell viability was assessed using LIVE/DEAD Aqua Dead Cell Stain Kit (Invitrogen Corporation, Carlsbad, Calif., United States of America). For BrdU incorporation assay, the cells were fixed, permeablized, and stained with an APC BrdU Flow Kit according to the manufacturer's instruction. In all experiments, PE-Cy7, FITC, APC-alexa750, and the Aqua Dead cell stain isotype controls were included as appropriate. Flow cytometric analysis was performed using a CyAn ADP (Dako, Glostrup, Denmark). For each sample, a minimum of 500,000 cells was analyzed and the data were analyzed using FlowJo software (Tree Star, Ashland, Oreg., United States of America)."}, "[2]": {"system": "human melanoma cells lacking INK4a/ARF (WM2664)", "assay": "γH2AX assay (DNA damage, flow cytometry)", "assay_type": "cell-based", "conditions": "16 hours pretreatment", "excerpt": "(§1) Reduction in DNA damage effected by the test compound or maintenance of cell viability effected by the test compound in cells treated with cytotoxic compounds can be assessed in any suitable manner. For example, DNA damage in cell populations can be assessed by performing a gamma-H2AX assay as described further herein below. Mammalian cells respond to agents that introduce DNA double-stranded breaks with the immediate and substantial phosphorylation of histone H2AX. Thus, detection of the phosphorylated H2AX, termed gamma-H2AX (γH2AX), using commercially available antibodies, can serve as a measure of DNA damage in cells.\n(§2) Cells were cultured in DMEM+10% FBS.\n(§3) γH2AX assay: For γH2AX assay, cells were treated with a dose response of PD332991 or 2BrIC for 24 hours. Cells were fixed, permeabilized, and stained with anti-γH2AX antibody as per γH2AX Flow Kit (Millipore, Billerica, Mass., United States of America). γH2AX levels were assessed by flow cytometry."}, "[3]": {"system": "human RB-null melanoma cells (A2058)", "assay": "γH2AX assay (DNA damage, flow cytometry)", "assay_type": "cell-based", "conditions": "16 hours pretreatment, then 8 hours Carbo, Etop or Dox", "excerpt": "as §1, §2, §3"}, "[4]": {"system": "telomerized human diploid fibroblast (tHDF) cells (HS68)", "assay": "γH2AX assay (DNA damage, flow cytometry)", "assay_type": "cell-based", "conditions": "16 hours pretreatment, then 8 hours Carbo, Etop or Dox", "excerpt": "as §1, §2, §3"}, "[5]": {"system": "human RB-null melanoma cells (A2058)", "assay": "Cell proliferation assay (WST-1 or CellTiter-Glo) after chemotherapeutic", "conditions": "A2058 (CDK4/6-independent); pretreatment prior to carboplatin, etoposide or doxorubicin", "method": "(§6) In some embodiments, cell viability is assessed by performing a assay using 2-(4-iodophenyl)-3-(4-nitrophenyl)-5-(2,4-disulfophenyl)-2H-tetrazolium monosodium salt (WST-1), such as described further hereinbelow. In the WST-1 assay, WST-1 is cleaved by a mitochondrial reductase present in viable cells to form a colored product (i.e., formazan) that can be detected by measuring absorbance at a particular wavelength (e.g., 420-480 nm). […] The CellTiter-Glo® assay (CTG assay; Promega, Madison, Wis., United States of America) measures cell viability by measuring ATP concentration in cell lysate.\n(§7) Cell lines: Telomerized human diploid fibroblast (tHDF) cells (HS68) were cultured in Dulbecco's Modified Eagle Medium (DMEM) +10% fetal bovine serum (FBS) with any additional compounds. The same conditions were used for A2058 and WM2664, human melanoma cell lines with known RB-pathway mutations: A2058 is RB-null, whereas WM2664 lacks INK4a/ARF. Thus, A2058 cells are CDK4/6-independent, while WM2664 cells are CDK4/6-dependent. Cells were cultured in DMEM+10% FBS.\n(§8) Cell proliferation assays: Cell proliferation assays were performed by seeding 1×10^3 cells per well in a 96-well tissue culture plate in 100 μL of growth medium. Cells were treated as indicated with compound from Table 1 and doxorubicin, etoposide or carboplatin. Following treatment, cells were allowed to recover for 7 days in normal growth medium. At the end of the recovery period, cell number was quantified using the VVST-1 cell proliferation assay (TaKaRa Bio USA, Madison, Wis., United States of America) or the CellTiter-Glo® assay (CTG; Promega, Madison, Wis., United States of America). Data is presented as absorbance at 450 nm for the WST assays or Relative Light Units (RLU) for the CTG assays."}, "tumor bearing mice": {"system": "tumor bearing mice", "conditions": "serially treated; cited from earlier work"}, "[6]": {"system": "human patients with malignancies", "conditions": "serially treated; cited from earlier work"}, "[7]": {"system": "telomerized human diploid fibroblast (tHDF) cells (HS68)", "assay": "Cell proliferation assay (WST-1 or CellTiter-Glo) after chemotherapeutic", "conditions": "HS68 (CDK4/6-dependent); pretreatment prior to carboplatin, etoposide or doxorubicin", "method": "as §6, §7, §8"}, "[8]": {"system": "human melanoma cells lacking INK4a/ARF (WM2664)", "assay": "Cell proliferation assay (WST-1 or CellTiter-Glo) after chemotherapeutic", "conditions": "WM2664 (CDK4/6-dependent); pretreatment prior to carboplatin, etoposide or doxorubicin", "method": "as §6, §7, §8"}, "[9]": {"system": "human melanoma cells lacking INK4a/ARF (WM2664)", "assay": "Cell cycle analysis (BrdU and propidium iodide, flow cytometry)", "assay_type": "cell-based", "conditions": "WM2664 (CDK4/6-dependent), 24 hours treatment", "description": "as §2\n(§4) Cell cycle analysis: Cell cycle analysis was performed using BrdU and propidium iodide (both from BD Biosciences Pharmigen, San Jose, Calif., United States of America) following the manufacturer's protocol. Cells were treated for 24 hours with a test compound at a desired dose prior to 15 minutes BrdU pulse, cell harvesting, fixation, staining, and analysis by flow cytometry.\n(§5) Histograms of dose-response curves of PD332991 and 2BrIC in HS68, WM2664 and A2058 cells were analyzed using Mod-Fit™ software from Verity Software House (Topsham, Me., United States of America)."}, "[10]": {"system": "telomerized human diploid fibroblast (tHDF) cells (HS68)", "assay": "Cell cycle analysis (BrdU and propidium iodide, flow cytometry)", "assay_type": "cell-based", "conditions": "HS68 (CDK4/6-dependent), 24 hours treatment", "description": "as §2, §4, §5"}, "[11]": {"system": "mice exposed to chemotherapeutic agents", "assay": "Myelosuppression assay: weekly complete blood counts", "assay_type": "in vivo", "conditions": "for protection of blood cell counts (platelets, hemoglobin, lymphocytes, granulocytes) from doxorubicin: 150 mg/kg oral gavage 1 hour before DOX 10 mg/kg i.p., repeated after 7 days, blood at fourteen days; for protection of blood cell counts (platelets, hemoglobin, lymphocytes, granulocytes) from carboplatin: 150 mg/kg oral gavage one hour before Carbo 100 mg/kg i.p., blood at seven day intervals", "description": "PD0332991: In the carboplatin experiments, mice were treated with a single dose of PD0332991 150 mg/kg oral gavage or vehicle control followed by carboplatin 100 mg/kg IP injection. In the doxorubicin experiments, mice were treated with a PD0332991 150 mg/kg by oral gavage or vehicle control one hour before doxorubicin 10 mg/kg by IP injection on day 0 and then repeated on day 7.\n2BrIC: Mice were treated with a single dose of carboplatin 100 mg/kg by IP injection and two doses of 2BrIC 150mg/kg oral gavage or vehicle control. Mice were pretreated with 2BrIC two hours prior to carboplatin administration and then readministered a second dose of 2BrIC at the time of the carboplatin injection.\nBaseline complete blood count (CBC) analysis were performed on a subset of mice prior to drug administration. Following drug administration (chemotherapy+/−indicated CDK4/6 inhibitor or control), mice were monitored weekly for the presence of myelosuppression by CBC analysis. CBC analysis was performed using BD Microtainer tubes with K2E (K2EDTA), 40 μL of blood was collected by tail vein nick. Blood was analyzed using a HESKA CBC-Diff Veterinary Hematology System. CBC analysis included measurement of white blood cells, lymphocytes, granulocytes, monocytes, hematocrit, red blood cells, hemoglobin, platelets, and other common hematological parameters."}}}
{"smiles": "CC(=O)c1c(C)c2cnc(Nc3ccc(N4CCNCC4)cn3)nc2n(C2CCCC2)c1=O", "note": "[PD0332991, 6-acetyl-8-cyclopentyl-5-methyl-2-(5-piperazin-1-yl-pyridin-2-ylamino)-8H-pyrido-[2,3-d]-pyrimidin-7-one]", "values": [{"measurement": "proliferation of granulocyte-monocyte progenitors (GMP) and megakaryocyte-erythroid progenitors (MEP)", "setting": "[1]; 150 mg/kg daily oral gavage, 48 hours", "result": "weaker effects"}, {"measurement": "proliferation in early HSPC populations (BrdU incorporation and Ki67 expression)", "setting": "[1]; 48 hours treatment, 24 hour exposure to BrdU", "result": "clearly reduces proliferation"}, {"measurement": "frequency of HSC doubly positive for expression of Ki67 and BrdU", "setting": "[1]; HSC (Lin−Kit+Sca1+CD48−CD150+), 150 mg/kg daily oral gavage, 48 hours, C57BII/6 mice", "result": "significantly decreased"}, {"measurement": "proliferation of oligopotent progenitors (Ki67, BrdU)", "setting": "[1]; Lin−Kit+Sca1−, 150 mg/kg daily oral gavage, 48 hours", "result": "modest inhibition of proliferation"}, {"measurement": "proliferation of multipotent progenitor cell compartment (Ki67, BrdU)", "setting": "[1]; MPP (Lin−Kit+Sca1+CD48−CD150−), 150 mg/kg daily oral gavage, 48 hours", "result": "more pronounced inhibition of proliferation"}, {"measurement": "proliferation of Lin−Kit−Sca1− and Lin+ cells", "setting": "[1]; more fully differentiated cells, 150 mg/kg daily oral gavage, 48 hours", "result": "no change in proliferation"}, {"measurement": "protection from doxorubicin-, carboplatin- or etoposide-induced DNA damage (gamma-H2AX)", "setting": "[2]; then 8 hours Carbo, Etop or Dox", "result": "attenuated γH2AX staining"}, {"measurement": "protection from carboplatin-induced DNA damage (gamma-H2AX positive cells)", "setting": "[2]; then 8 hours carboplatin", "result": "ability"}, {"measurement": "protection from doxorubicin-induced DNA damage (gamma-H2AX positive cells)", "setting": "[2]; then 8 hours doxorubicin", "result": "ability"}, {"measurement": "protection from etoposide-induced DNA damage (gamma-H2AX positive cells)", "setting": "[2]; then 8 hours etoposide", "result": "ability"}, {"measurement": "protection from doxorubicin-, carboplatin- or etoposide-induced DNA damage (gamma-H2AX)", "setting": "[3]", "result": "inability"}, {"measurement": "protection from doxorubicin-, carboplatin- or etoposide-induced DNA damage (gamma-H2AX)", "setting": "[4]", "result": "attenuated γH2AX staining"}, {"measurement": "protection from doxorubicin-, carboplatin- or etoposide-induced DNA damage (gamma-H2AX)", "setting": "[4]; listed as PD 0332991", "result": "ability"}, {"measurement": "protection from chemotherapy-induced cytotoxicity (cell proliferation assays)", "setting": "[5]", "result": "not"}, {"measurement": "erythroid, platelet and myeloid (monocyte+granulocyte) lineages upon administration", "setting": "tumor bearing mice", "result": "decrease"}, {"measurement": "erythroid, platelet and myeloid (monocyte+granulocyte) lineages upon administration", "setting": "[6]", "result": "decrease"}, {"measurement": "protection from chemotherapy-induced cytotoxicity (cell proliferation assays)", "setting": "[7]", "result": "significant protection"}, {"measurement": "protection from chemotherapy-induced cytotoxicity (cell proliferation assays)", "setting": "[8]", "result": "significant protection"}, {"measurement": "cell cycle effect", "setting": "[9]", "result": "strong, clean and reversible G1-arrest"}, {"measurement": "cell cycle effect", "setting": "[10]", "result": "strong, clean and reversible G1-arrest"}, {"measurement": "protection of blood cell counts (platelets, hemoglobin, lymphocytes, granulocytes) from doxorubicin", "setting": "[11]", "result": "provides quadrilineage protection"}, {"measurement": "protection of blood cell counts (platelets, hemoglobin, lymphocytes, granulocytes) from doxorubicin", "setting": "[11]; listed as PD332991", "result": "protected"}, {"measurement": "protection of blood cell counts (platelets, hemoglobin, lymphocytes, granulocytes) from carboplatin", "setting": "[11]", "result": "provides quadrilineage protection"}, {"measurement": "protection of blood cell counts (platelets, hemoglobin, lymphocytes, granulocytes) from carboplatin", "setting": "[11]; listed as PD332991", "result": "protected"}]}
